# What was measured:
# [1] = system: cocklebur; test: Test B pre/postemergence cocklebur; format: in vivo, Xanthium strumarium; conditions: for Cocklebur plant response rating (0 to 10 scale): 0 is no effect
# Procedure, shortened: (§1)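 Herbicidal effect was estimated by eye on a ten-point control scale after plants spent twelve to sixteen days in a greenhouse following soil or foliar treatment. Foliar sprays targeted plants at one to four leaves; all doses were formulated in a non-phytotoxic solvent with surfactant.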
# [2] = system: giant foxtail; test: Test B pre/postemergence giant foxtail; format: in vivo, Setaria faberii; conditions: for Giant foxtail plant response rating (0 to 10 scale): 0 is no effect
# Procedure, shortened: as §1
# [3] = system: morningglory; test: Test B pre/postemergence morningglory; format: in vivo, Ipomoea hederacea
# Procedure, shortened: as §1
# [4] = system: bamyardgrass; test: Test B flood test barnyardgrass; format: in vivo, Echinochloa crus-galli
# Procedure, shortened: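 Plants were grown to the 2-leaf stage before treatment with test chemical, then held in a greenhouse for twelve to sixteen days. Injury was visually rated against untreated controls on a 0–10 scale, where 0 is no effect and 10 is complete control.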
# [5] = system: winter wheat; test: Test E winter wheat; format: in vivo, Triticum aestivum; conditions: Postemergence; for Plant response rating, Wheat (winter): 0 to 100 scale
# Procedure, shortened: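 For postemergence, plants at the 1- to 4-leaf stage, in a 60:40 mix of sandy loam and potting mix, treated with compound formulated in a surfactant-containing non-phytotoxic solvent. Visual assessment versus untreated controls followed roughly 21–28 days in the greenhouse.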
# [6] = system: blackgrass; test: Test E blackgrass; format: in vivo, Alopecurus myosuroides; conditions: Preemergence; for Blackgrass plant response rating (0 to 100 scale): Rate 250 g/ha
# [7] = system: green foxtail; test: Test E green foxtail; format: in vivo, Setaria viridis; conditions: Preemergence; for Green foxtail plant response rating (0 to 100 scale): Rate 250 g/ha
# [8] = system: Italian ryegrass; test: Test E Italian ryegrass; format: in vivo, Lolium multiflorum; conditions: Preemergence; for I. Ryegrass plant response rating (0 to 100 scale): Rate 250 g/ha
# [9] = system: winter wheat; test: Test E winter wheat; format: in vivo, Triticum aestivum; conditions: Preemergence; for Wheat (winter) plant response rating (0 to 100 scale): Rate 250 g/ha
# [10] = system: wild oat; test: Test E wild oat; format: in vivo, Avena fatua; conditions: Preemergence; for Wild oat plant response rating (0 to 100 scale): Rate 250 g/ha
# [11] = system: winter barley; test: Test E winter barley; format: in vivo, Hordeum vulgare; conditions: Preemergence; for Barley (winter) plant response rating (0 to 100 scale): Rate 250 g/ha
# [12] = Preemergence, Rate 62 g/ha, scale of 0 to 10 where 0 is no effect and 10 is complete control
# [13] = Preemergence, Rate 125 g/ha, 10 is complete control
# [14] = Preemergence, Rate 250 g/ha, scale 0 to 10, 0 is no effect, 10 is complete control
# [15] = Preemergence, Rate 500 g/ha, scale 0 to 10 (0 no effect, 10 complete control)
# [16] = Rate 62 g/ha, Postemergence, scale of 0 to 10 where 0 is no effect and 10 is complete control
# [17] = Rate 125 g/ha, Postemergence, scale 0 to 10
# [18] = Rate 500 g/ha, Postemergence, scale 0 to 10
# [19] = Rate 62 g/ha, headed Pre-emergence (flood test species), scale 0 to 10 (0 no effect, 10 complete control)
# [20] = Rate 125 g/ha, Pre-emergence, flood test species, scale 0 to 10 where 0 is no effect and 10 is complete control
# [21] = Rate 250 g/ha, Pre-emergence, flood-test species, scale 0 to 10, 0 is no effect, 10 is complete control
# [22] = Rate 500 g/ha, 0 is no effect, 100 is complete control
# [23] = Rate 125 g/ha, 0 to 100 scale (0 no effect, 100 complete control)
# [24] = Rate 500 g/ha, 0 to 100 scale where 0 is no effect and 100 is complete control
# [25] = Preemergence, Rate 500 g/ha, scale of 0 to 10 where 0 is no effect and 10 is complete control
# [26] = Rate 500 g/ha, Pre-emergence, flood test species, scale 0 to 10 (0 no effect, 10 complete control)
# [27] = Rate 1000 g/ha, 0 to 100 scale where 0 is no effect and 100 is complete control
# [28] = Preemergence, Rate 250 g/ha, scale of 0 to 10 where 0 is no effect and 10 is complete control
# [29] = Rate 125 g/ha, Preemergence, scale of 0 to 10 where 0 is no effect and 10 is complete control
smiles,measurement,setting,value
Cc1nc(C)c(Cn2c(=O)on(C(=O)N(c3ccc(Cl)cc3)C(C)C)c2=O)s1 [Compound 191],Cocklebur plant response rating,[1]; [12],0
same,Cocklebur plant response rating (0 to 10 scale),[1]; [13],0
same,Cocklebur plant response rating,[1]; [14],0
same,Cocklebur plant response rating,[1]; [15],0
same,Cocklebur plant response rating,[1]; [16],1
same,Cocklebur plant response rating,[1]; [17],2
same,"Plant response rating (0 to 10; 0 is no effect, 10 is complete control), Cocklebur","[1]; Rate 250 g/ha, Postemergence",2
same,Cocklebur plant response rating,[1]; [18],3
same,Giant foxtail plant response rating,[2]; [12],3
same,Giant foxtail plant response rating (0 to 10 scale),[2]; [13],8
same,Giant foxtail plant response rating,[2]; [14],9
same,Giant foxtail plant response rating,[2]; [15],10
same,Giant foxtail plant response rating,[2]; [16],0
same,Giant foxtail plant response rating,[2]; [17],0
same,"Plant response rating (0 to 10; 0 is no effect, 10 is complete control), Giant foxtail","[2]; Rate 250 g/ha, Postemergence",0
same,Giant foxtail plant response rating,[2]; [18],2
same,Morningglory plant response rating,[3]; [12],0
same,Morningglory plant response rating,[3]; [14],0
same,Morningglory plant response rating,[3]; [15],0
same,Morningglory plant response rating,[3]; [16],1
same,Morningglory plant response rating,[3]; [17],2
same,"Plant response rating (0 to 10; 0 is no effect, 10 is complete control), Morningglory","[3]; Rate 250 g/ha, Postemergence",2
same,Morningglory plant response rating,[3]; [18],8
same,Barnyardgrass plant response rating,[4]; [19],0
same,Barnyardgrass plant response rating,[4]; [20],0
same,Barnyardgrass plant response rating,[4]; [21],0
same,"Plant response rating, Barnyardgrass","[4]; Rate 500 g/ha, headed Pre-emergence (flood test species), scale 0 to 10 (0 no effect, 10 complete control)",0
same,"Plant response rating, Wheat (winter)",[5]; Rate 125 g/ha,30
same,"Plant response rating, Wheat (winter)",[5]; [22],60
same,"Plant response rating, Blackgrass",[6]; [23],10
same,Blackgrass plant response rating (0 to 100 scale),[6],20
same,"Plant response rating, Blackgrass",[6]; [24],30
same,"Plant response rating, Green foxtail",[7]; [23],30
same,Green foxtail plant response rating (0 to 100 scale),[7],40
same,"Plant response rating, Green foxtail",[7]; [24],50
same,"Plant response rating, I. Ryegrass",[8]; [23],0
same,I. Ryegrass plant response rating (0 to 100 scale),[8],0
same,"Plant response rating, I. Ryegrass",[8]; [24],30
same,"Plant response rating, Wheat (winter)",[9]; [23],10
same,Wheat (winter) plant response rating (0 to 100 scale),[9],30
same,"Plant response rating, Wheat (winter)",[9]; [24],50
same,"Plant response rating, Wild oat",[10]; [23],30
same,Wild oat plant response rating (0 to 100 scale),[10],40
same,"Plant response rating, Wild oat",[10]; [24],50
same,"Plant response rating, Barley (winter)",[11]; [23],10
same,Barley (winter) plant response rating (0 to 100 scale),[11],30
same,"Plant response rating, Barley (winter)",[11]; [24],20
CC(C)N(C(=O)n1oc(=O)n(Cc2ccco2)c1=O)c1ccc(F)cc1 [Compound 207],Cocklebur plant response rating,[1]; [12],0
same,Cocklebur plant response rating (0 to 10 scale),[1]; [13],0
same,Cocklebur plant response rating,[1]; [14],0
same,"Plant response rating, Cocklebur",[1]; [25],0
same,Cocklebur plant response rating,[1]; [16],0
same,Cocklebur plant response rating,[1]; [17],0
same,"Plant response rating (0 to 10; 0 is no effect, 10 is complete control), Cocklebur","[1]; Rate 250 g/ha, Postemergence",0
same,Cocklebur plant response rating,[1]; [18],3
same,Giant foxtail plant response rating,[2]; [12],3
same,Giant foxtail plant response rating (0 to 10 scale),[2]; [13],6
same,Giant foxtail plant response rating,[2]; [14],9
same,"Plant response rating, Giant foxtail",[2]; [25],10
same,Giant foxtail plant response rating,[2]; [16],0
same,Giant foxtail plant response rating,[2]; [17],0
same,"Plant response rating (0 to 10; 0 is no effect, 10 is complete control), Giant foxtail","[2]; Rate 250 g/ha, Postemergence",1
same,Giant foxtail plant response rating,[2]; [18],2
same,Morningglory plant response rating,[3]; [12],0
same,Morningglory plant response rating (0 to 10 scale),"[3]; Preemergence, Rate 125 g/ha, 0 is no effect, 10 is complete control",0
same,Morningglory plant response rating,[3]; [14],0
same,"Plant response rating, Morningglory",[3]; [25],0
same,Morningglory plant response rating,[3]; [16],0
same,Morningglory plant response rating,[3]; [17],2
same,"Plant response rating (0 to 10; 0 is no effect, 10 is complete control), Morningglory","[3]; Rate 250 g/ha, Postemergence",2
same,Morningglory plant response rating,[3]; [18],3
same,Barnyardgrass plant response rating,[4]; [19],0
same,Barnyardgrass plant response rating,[4]; [20],0
same,Barnyardgrass plant response rating,[4]; [21],2
same,Barnyardgrass plant response rating,[4]; [26],7
same,"Plant response rating, Wheat (winter)","[5]; Rate 1000 g/ha, 0 is no effect and 100 is complete control",50
same,"Plant response rating, Wheat (winter)",[5]; [22],30
same,Blackgrass plant response rating (0 to 100 scale),[6],30
same,"Plant response rating, Blackgrass",[6]; [24],80
same,"Plant response rating, Blackgrass",[6]; [27],85
same,Green foxtail plant response rating (0 to 100 scale),[7],80
same,"Plant response rating, Green foxtail",[7]; [24],90
same,"Plant response rating, Green foxtail",[7]; [27],100
same,I. Ryegrass plant response rating (0 to 100 scale),[8],40
same,"Plant response rating, I. Ryegrass",[8]; [24],55
same,"Plant response rating, I. Ryegrass",[8]; [27],30
same,Wheat (winter) plant response rating (0 to 100 scale),[9],60
same,"Plant response rating, Wheat (winter)",[9]; [24],70
same,"Plant response rating, Wheat (winter)",[9]; [27],70
same,Wild oat plant response rating (0 to 100 scale),[10],65
same,"Plant response rating, Wild oat",[10]; [24],70
same,"Plant response rating, Wild oat",[10]; [27],70
same,Barley (winter) plant response rating (0 to 100 scale),[11],65
same,"Plant response rating, Barley (winter)",[11]; [24],70
same,"Plant response rating, Barley (winter)",[11]; [27],80
CC(C)N(C(=O)n1oc(=O)n(CCC(F)=C(F)F)c1=O)c1ccc(F)cc1 [Compound 218],Cocklebur plant response rating,[1]; [12],0
same,Cocklebur plant response rating,[1]; [28],0
same,"Plant response rating, Cocklebur",[1]; [25],0
same,Cocklebur plant response rating,[1]; [16],0
same,Cocklebur plant response rating,[1]; [17],0
same,Cocklebur plant response rating,[1]; [29],0
same,"Plant response rating (0 to 10; 0 is no effect, 10 is complete control), Cocklebur","[1]; Rate 250 g/ha, Postemergence",3
same,Cocklebur plant response rating,[1]; [18],4
same,Giant foxtail plant response rating,[2]; [12],9
same,Giant foxtail plant response rating,[2]; [28],10
same,"Plant response rating, Giant foxtail",[2]; [25],10
same,Giant foxtail plant response rating,[2]; [16],1
same,Giant foxtail plant response rating,[2]; [17],5
same,Giant foxtail plant response rating,[2]; [29],9
same,"Plant response rating (0 to 10; 0 is no effect, 10 is complete control), Giant foxtail","[2]; Rate 250 g/ha, Postemergence",7
same,Giant foxtail plant response rating,[2]; [18],8
same,Morningglory plant response rating,[3]; [12],0
same,Morningglory plant response rating,[3]; [28],0
same,"Plant response rating, Morningglory",[3]; [25],0
same,Morningglory plant response rating,[3]; [16],3
same,Morningglory plant response rating,[3]; [17],4
same,Morningglory plant response rating,[3]; [29],0
same,"Plant response rating (0 to 10; 0 is no effect, 10 is complete control), Morningglory","[3]; Rate 250 g/ha, Postemergence",8
same,Morningglory plant response rating,[3]; [18],9
same,Barnyardgrass plant response rating,[4]; [19],0
same,Barnyardgrass plant response rating,[4]; [20],0
same,Barnyardgrass plant response rating,[4]; [21],0
same,Barnyardgrass plant response rating,[4]; [26],0
same,"Plant response rating, Wheat (winter)","[5]; Rate 125 g/ha, 0 is no effect, 100 is complete control",65
same,Wheat (winter) plant response rating,"[5]; Rate 250 g/ha, 0 to 100 scale where 0 is no effect and 100 is complete control",70
same,"Plant response rating, Wheat (winter)",[5]; [22],85
same,"Plant response rating, Blackgrass",[6]; [23],65
same,Blackgrass plant response rating (0 to 100 scale),[6],70
same,"Plant response rating, Blackgrass",[6]; [24],100
same,"Plant response rating, Green foxtail",[7]; [23],30
same,Green foxtail plant response rating (0 to 100 scale),[7],55
same,"Plant response rating, Green foxtail",[7]; [24],85
same,"Plant response rating, I. Ryegrass",[8]; [23],55
same,I. Ryegrass plant response rating (0 to 100 scale),[8],60
same,"Plant response rating, I. Ryegrass",[8]; [24],70
same,"Plant response rating, Wheat (winter)",[9]; [23],50
same,Wheat (winter) plant response rating (0 to 100 scale),[9],40
same,"Plant response rating, Wheat (winter)",[9]; [24],50
same,"Plant response rating, Wild oat",[10]; [23],70
same,Wild oat plant response rating (0 to 100 scale),[10],65
same,"Plant response rating, Wild oat",[10]; [24],70
same,"Plant response rating, Barley (winter)",[11]; [23],40
same,Barley (winter) plant response rating (0 to 100 scale),[11],50
same,"Plant response rating, Barley (winter)",[11]; [24],65

# Source: patent publication US6737383B1, “Herbicidal oxadiazolidines” (priority 1999, dated 2004)
